Reference: US20230257385A1, “SALT AND SOLID FORMS OF TABERNANTHALOG” (priority 2021, published 2023)
Where a name gives a salt, the structure may show the parent alone.

How the values were obtained:
Assay type in all cases: physicochemical
[1] = Equilibrium humidity evaluation 75% RH/40° C., 10 days (Example 8, Experiment 6); details: for change in chemical purity (trended HPLC): after 10 days; for powder diffraction pattern versus input (form stability): t=5 days and t=10 days
Procedure, shortened: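 Tabernanthalog salt powders (100 mg) were spread evenly in open vials and held at 40 °C and 75% RH. Sub-samples taken at 5 and 10 days were analysed by ^1H NMR, HPLC, XRPD, DSC, TGA and PLM for phase change, chemical degradation and residual solvent.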

[2] = Dynamic vapour sorption (DVS) of selected salts (Example 8)
Procedure, shortened: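 Sorption/desorption isotherms on 20–50 mg sample at 25°C after 60 min at 0% RH: 5% steps to 30%, 10% steps to 90%, then reverse. Equilibrium criterion dm/dt 0.002%/min; kinetic and isotherm curves derived.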

[3] = Stability panel of salts, open vial / double-bagged vial, t=5 d and 10 d; details: storage conditions not given
From the text: FIG. 797 depicts the overlay of, from top to bottom, XRPD of Experiment 1-Sample A2 (Form A), Experiment 10-Sample A1 (5 days, open vial Pattern #2), Experiment 10-Sample A2 (10 days, open vial, Pattern #2), Experiment 10-Sample B1 (5 days, double-bagged vial, Form A) and Experiment 10-Sample B2 (10 days, double-bagged vial, Pattern #2).

[4] = SIF buffer solubility panel (FaSSIF, FeSSIF, FaSSGF)
[5] = Examination of variability of fusion temperature of sorbate Form A (DSC); details: listed as Experiment 13-Sample C1
Experimental: The factors that were assessed to explain the observed variability in fusion temperature found amongst Form A samples were sample loading, preferred orientation and particle size/homogeneity (Table 271). A weak relationship between sample loading and melt onset was observed, the remainder of the factors examined, appeared to be unrelated.
DSC data were collected from 25 to 220C at a scan rate of at 10° C. min^−1 (Table 292).

[6] = 75% RH/40° C., listed as Tabernanthalog sorbate salt (Form A)
[7] = DSC 25-220° C. at 10° C. min^−1, batches of sorbate salt Form A
[8] = DSC 25 to 220C at 10° C. min−1, tabernanthalog sorbate Form A samples

COc1ccc2c3c([nH]c2c1)CCN(C)CC3 [tabernanthalog sorbate salt]
CP (chemical purity) after storage ([1]; 75% RH at 40° C., 10 days): 99.70 % area
change in chemical purity (trended HPLC) ([1]; 75% RH/40° C.): did not reduce significantly
change in chemical purity (trended HPLC) [1, 6]: lowest decrease in chemical purity
change in chemical purity (trended HPLC) ([1]; 75% RH/40° C., listed as tabernanthalog sorbate): lowest decrease in chemical purity
water uptake / hydrate formation (TGA, DSC) ([1]; 75% RH/40° C., t=5 d and t=10 d): did not exhibit any water absorption events
powder diffraction pattern versus input (form stability) ([1]; 75% RH/40° C.): matched the diffractogram of the input material
powder diffraction pattern versus input (form stability) [1, 6]: Form A was stable
Tabernanthalog RRT = 1.00 (trended HPLC data, chemical purity) ([1]; Sorbate salt, input before humidity exposure): 99.76
CP (chemical purity) before storage ([1]; input of 6-D): 99.76 % area
DVS sorption/desorption isotherm ([2]; 0 to 90 to 0% RH, 25° C., dm/dt 0.002%/min): slightly hygroscopic up to 80% RH
DVS 0 to 90 to 0% RH (dm/dt <0.002%), mass change ([2]; desorption, 0.0% RH): −0.06%
DVS mass change ([2]; desorption, 0.0% RH, listed as tabernanthalog sorbate salt (Form A)): 0.06%
DVS mass change ([2]; desorption, 0.0% RH, listed as tabernanthalog sorbate salt (Form I)): −0.06%
DVS 0 to 90 to 0% RH (dm/dt <0.002%), mass change ([2]; desorption, 5.0% RH): −0.05%
DVS mass change ([2]; desorption, 5.0% RH, listed as tabernanthalog sorbate salt (Form A)): 0.05%
DVS mass change ([2]; desorption, 5.0% RH, listed as tabernanthalog sorbate salt (Form I)): −0.05%
DVS 0 to 90 to 0% RH (dm/dt <0.002%), mass change ([2]; desorption, 10.0% RH): −0.04%
DVS mass change ([2]; desorption, 10.0% RH, listed as tabernanthalog sorbate salt (Form A)): 0.04%
DVS mass change ([2]; desorption, 10.0% RH, listed as tabernanthalog sorbate salt (Form I)): −0.04%
DVS 0 to 90 to 0% RH (dm/dt <0.002%), mass change ([2]; desorption, 15.0% RH): −0.03%
DVS mass change ([2]; desorption, 15.0% RH, listed as tabernanthalog sorbate salt (Form A)): 0.03%
DVS mass change ([2]; desorption, 15.0% RH, listed as tabernanthalog sorbate salt (Form I)): −0.03%
DVS 0 to 90 to 0% RH (dm/dt <0.002%), mass change ([2]; desorption, 20.0% RH): −0.02%
DVS mass change ([2]; desorption, 20.0% RH, listed as tabernanthalog sorbate salt (Form A)): 0.02%
DVS mass change ([2]; desorption, 20.0% RH, listed as tabernanthalog sorbate salt (Form I)): −0.02%
DVS 0 to 90 to 0% RH (dm/dt <0.002%), mass change ([2]; desorption, 25.0% RH): −0.007%
DVS mass change ([2]; desorption, 25.0% RH, listed as tabernanthalog sorbate salt (Form A)): 0.00%
DVS mass change ([2]; desorption, 25.0% RH, listed as tabernanthalog sorbate salt (Form I)): −0.007%
DVS 0 to 90 to 0% RH (dm/dt <0.002%), mass change ([2]; desorption, 30.0% RH): 0.00%
DVS mass change ([2]; desorption, 30.0% RH): 0.00%
DVS 0 to 90 to 0% RH (dm/dt <0.002%), mass change ([2]; desorption, 40.0% RH): 0.03%
DVS mass change ([2]; desorption, 40.0% RH): 0.03%
DVS 0 to 90 to 0% RH (dm/dt <0.002%), mass change ([2]; desorption, 50.0% RH): 0.06%
DVS mass change ([2]; desorption, 50.0% RH): 0.06%
DVS 0 to 90 to 0% RH (dm/dt <0.002%), mass change ([2]; desorption, 60.0% RH): 0.18%
DVS mass change ([2]; desorption, 60.0% RH): 0.18%
DVS 0 to 90 to 0% RH (dm/dt <0.002%), mass change ([2]; desorption, 70.0% RH): 0.30%
DVS mass change ([2]; desorption, 70.0% RH): 0.30%
DVS 0 to 90 to 0% RH (dm/dt <0.002%), mass change ([2]; desorption, 80.0% RH): 0.48%
DVS mass change ([2]; desorption, 80.0% RH): 0.48%
DVS 0 to 90 to 0% RH (dm/dt <0.002%), mass change ([2]; desorption, 90.0% RH): 0.98%
DVS mass change ([2]; desorption, 90.0% RH): 0.98%
DVS 0 to 90 to 0% RH (dm/dt <0.002%), mass change ([2]; sorption, 0.0% RH): 0.00%
DVS mass change ([2]; sorption, 0.0% RH, dm/dt<0.002%): 0.00%
DVS 0 to 90 to 0% RH (dm/dt <0.002%), mass change ([2]; sorption, 5.0% RH): 0.0%
DVS mass change ([2]; sorption, 5.0% RH): 0.0%
DVS 0 to 90 to 0% RH (dm/dt <0.002%), mass change ([2]; sorption, 10.0% RH): 0.01%
DVS mass change ([2]; sorption, 10.0% RH): 0.01%
DVS 0 to 90 to 0% RH (dm/dt <0.002%), mass change ([2]; sorption, 15.0% RH): 0.01%
DVS mass change ([2]; sorption, 15.0% RH): 0.01%
DVS 0 to 90 to 0% RH (dm/dt <0.002%), mass change ([2]; sorption, 20.0% RH): 0.02%
DVS mass change ([2]; sorption, 20.0% RH): 0.02%
DVS 0 to 90 to 0% RH (dm/dt <0.002%), mass change ([2]; sorption, 25.0% RH): 0.03%
DVS mass change ([2]; sorption, 25.0% RH): 0.03%
DVS 0 to 90 to 0% RH (dm/dt <0.002%), mass change ([2]; sorption, 30.0% RH): 0.03%
DVS mass change ([2]; sorption, 30.0% RH): 0.03%
DVS 0 to 90 to 0% RH (dm/dt <0.002%), mass change ([2]; sorption, 40.0% RH): 0.05%
DVS mass change ([2]; sorption, 40.0% RH): 0.05%
DVS 0 to 90 to 0% RH (dm/dt <0.002%), mass change ([2]; sorption, 50.0% RH): 0.07%
DVS mass change ([2]; sorption, 50.0% RH): 0.07%
DVS 0 to 90 to 0% RH (dm/dt <0.002%), mass change ([2]; sorption, 60.0% RH): 0.10%
DVS mass change ([2]; sorption, 60.0% RH): 0.10%
DVS 0 to 90 to 0% RH (dm/dt <0.002%), mass change ([2]; sorption, 70.0% RH): 0.14%
DVS mass change ([2]; sorption, 70.0% RH): 0.14%
DVS 0 to 90 to 0% RH (dm/dt <0.002%), mass change ([2]; sorption, 80.0% RH): 0.21%
DVS mass change ([2]; sorption, 80.0% RH): 0.21%
DVS 0 to 90 to 0% RH (dm/dt <0.002%), mass change ([2]; sorption, 90.0% RH): 0.98%
DVS mass change ([2]; sorption, 90.0% RH): 0.98%
CP after stability storage ([3]; end value (minimal reduction in CP)): 99.70 % area
CP before stability storage ([3]; starting value): 99.76 % area
solubility in FaSSGF ([4]; FaSSGF, 37° C., up to 24 h (timepoints t=0, 1 h, 3 h, 6 h, 24 h)): remained suspended
disproportionation in the SIF buffers ([4]; SIF buffers): no observed disproportionation
solubility in the SIF buffers ([4]; SIF buffers overall): highly soluble in the SIF buffers (apart from FaSSGF)
Endset [5, 7]: 144.5 °C
melt enthalpy [5, 7]: −105.8 Jg^−1
melt onset [5, 7]: 139.9 °C
peak [5, 7]: 142.5 °C
melt enthalpy [5, 8]: −105.78 Jg-1
melt onset [5, 8]: 139.87 °C
Endset ([5]; DSC melt endset, 25 to 220C at 10° C. min−1, tabernanthalog sorbate Form A samples): 144.46 °C
peak ([5]; DSC melt peak, 25 to 220C at 10° C. min−1, tabernanthalog sorbate Form A samples): 142.50 °C
